“And” between values parts separate entries of the source, which are not always exact repeats. Equal values may be shown once.
Columns and labels:
[1] = Plasma concentrations during 7-day oral dosing in beagle dogs; type: in vivo; conditions: Group 3: Compound 1 1.5 mg/kg/day PO + fesoterodine fumarate 3 mg/kg/day PO
[2] = Plasma pharmacokinetics after single-dose intravenous administration in rats; type: in vivo, Sprague Dawley rats; conditions: for AUClast of desfesoterodine / C0 of desfesoterodine: IV
Experimental: The plasma concentration-time profile was evaluated for fesoterodine active metabolite desfesoterodine and Compound 1 in male Sprague Dawley rats following single-dose intravenous administration of fesoterodine (0.25 mg/kg) and Compound 1 (0.5 mg/kg and 1.5 mg/kg) alone and single-dose co-administration. Plasma exposures of desfesoterodine were similar following administration of fesoterodine alone and in combination with Compound 1.

[3] = Fesoterodine: 0.25 + Compound 1: 0.5 mg/kg
[4] = Fesoterodine: 0.25 + Compound 1: 1.5 mg/kg

CC(C)N(CCC(c1ccccc1)c1cc(CO)ccc1O)C(C)C (stereo not shown) [desfesoterodine, 5-hydroxymethyl tolterodine]
Plasma concentration of desfesoterodine, individual animals D3001-D3005 ([1]; Day 1, 0.250 h): 225 ng/mL and 35.2 ng/mL and 333 ng/mL and 23.3 ng/mL and 9.33 ng/mL
Plasma concentration of desfesoterodine, Mean ([1]; Day 1, 0.500 h): 111 ng/mL
Plasma concentration of desfesoterodine, individual animals D3001-D3005 ([1]; Day 1, 0.500 h): 154 ng/mL and 58.0 ng/mL and 257 ng/mL and 35.9 ng/mL and 52.4 ng/mL
Plasma concentration of desfesoterodine, Mean ([1]; Day 1, 0.750 h): 100 ng/mL
Plasma concentration of desfesoterodine, individual animals D3001-D3005 ([1]; Day 1, 0.750 h): 136 ng/mL and 35.1 ng/mL and 203 ng/mL and 64.7 ng/mL and 61.3 ng/mL
Plasma concentration of desfesoterodine, Mean ([1]; Day 1, 1.00 h): 66.6 ng/mL
Plasma concentration of desfesoterodine, individual animals D3001-D3005 ([1]; Day 1, 1.00 h): 96.0 ng/mL and 30.6 ng/mL and 149 ng/mL and 15.8 ng/mL and 41.5 ng/mL
Plasma concentration of desfesoterodine, Mean ([1]; Day 1, 2.00 h): 36.0 ng/mL
Plasma concentration of desfesoterodine, individual animals D3001-D3005 ([1]; Day 1, 2.00 h): 32.4 ng/mL and 17.2 ng/mL and 74.2 ng/mL and 10.7 ng/mL and 45.5 ng/mL
Plasma concentration of desfesoterodine, Mean ([1]; Day 1, 4.00 h): 9.29 ng/mL
Plasma concentration of desfesoterodine, individual animals D3001-D3005 ([1]; Day 1, 4.00 h): 7.08 ng/mL and 3.69 ng/mL and 17.0 ng/mL and 5.38 ng/mL and 13.3 ng/mL
Plasma concentration of desfesoterodine, Mean ([1]; Day 1, 8.00 h): 2.78 ng/mL
Plasma concentration of desfesoterodine, individual animals D3001-D3005 ([1]; Day 1, 8.00 h): 1.41 ng/ml and 4.22 ng/ml and 3.82 ng/ml and BQL and 1.67 ng/ml
Plasma concentration of desfesoterodine, individual animals D3001-D3005 ([1]; Day 1, 24.0 h): BQL
Plasma concentration of desfesoterodine, individual animals D3001-D3005 ([1]; Day 7, 0.00 h): BQL
Plasma concentration of desfesoterodine, Mean ([1]; Day 7, 0.250 h): 183 ng/mL
Plasma concentration of desfesoterodine, individual animals D3001-D3005 ([1]; Day 7, 0.250 h): 29.1 ng/mL and 60.6 ng/mL and 407 ng/mL and 149 ng/mL and 270 ng/mL
Plasma concentration of desfesoterodine, Mean ([1]; Day 7, 0.500 h): 201 ng/mL
Plasma concentration of desfesoterodine, individual animals D3001-D3005 ([1]; Day 7, 0.500 h): 103 ng/mL and 77.7 ng/mL and 318 ng/mL and 197 ng/mL and 311 ng/mL
Plasma concentration of desfesoterodine, Mean ([1]; Day 7, 0.750 h): 148 ng/mL
Plasma concentration of desfesoterodine, individual animals D3001-D3005 ([1]; Day 7, 0.750 h): 84.3 ng/mL and 66.4 ng/mL and 294 ng/mL and 102 ng/mL and 191 ng/mL
Plasma concentration of desfesoterodine, Mean ([1]; Day 7, 1.00 h): 128 ng/mL
Plasma concentration of desfesoterodine, individual animals D3001-D3005 ([1]; Day 7, 1.00 h): 73.5 ng/mL and 64.7 ng/mL and 224 ng/mL and 105 ng/mL and 175 ng/mL
Plasma concentration of desfesoterodine, Mean ([1]; Day 7, 2.00 h): 80.5 ng/mL
Plasma concentration of desfesoterodine, individual animals D3001-D3005 ([1]; Day 7, 2.00 h): 45.8 ng/mL and 42.6 ng/mL and 149 ng/mL and 63.2 ng/mL and 102 ng/mL
Plasma concentration of desfesoterodine, Mean ([1]; Day 7, 4.00 h): 40.2 ng/mL
Plasma concentration of desfesoterodine, individual animals D3001-D3005 ([1]; Day 7, 4.00 h): 52.2 ng/mL and 15.2 ng/mL and 61.6 ng/mL and 31.6 ng/mL and 40.5 ng/mL
Plasma concentration of desfesoterodine, Mean ([1]; Day 7, 8.00 h): 5.93 ng/mL
Plasma concentration of desfesoterodine, individual animals D3001-D3005 ([1]; Day 7, 8.00 h): 10.6 ng/mL and 3.92 ng/mL and 8.16 ng/mL and 2.93 ng/mL and 4.06 ng/mL
Plasma concentration of desfesoterodine, individual animals D3001-D3005 ([1]; Day 7, 24.0 h): BQL
AUClast of desfesoterodine ([2]; Fesoterodine: 0.25 mg/kg alone): 15.41 ng·h/mL
C0 of desfesoterodine ([2]; Fesoterodine: 0.25 mg/kg alone): 27.09 ng/mL
AUClast of desfesoterodine [2, 3]: 13.05 ng·h/mL
C0 of desfesoterodine [2, 3]: 34.63 ng/mL
AUClast of desfesoterodine [2, 4]: 13.73 ng·h/mL
C0 of desfesoterodine [2, 4]: 38.71 ng/mL
plasma exposures of desfesoterodine, fesoterodine alone vs in combination with Compound 1 ([2]; fesoterodine 0.25 mg/kg IV, rats): similar
